Experimental data reported in article PMC10482691, “LTP induction by structural rather than enzymatic functions of CaMKII” (Nature, 2023).
Where “and” joins values, the source holds several entries; their conditions need not be identical. Identical values can stand only once.

Legend:
[1] = target: purified CaMKIIα binding to GST–GluN2B-c WT (Homo sapiens, UniProt Q9UQM7); assay: CaMKII binding to immobilized GST–GluN2B-c in vitro; settings: for bound CaMKIIα (immunoblot, relative): Ca2+/CaM
Procedure: CaMKII–GluN2B binding assays were done as described[9],[13],[25]. Briefly, GST–GluN2B-c tail (GST–2BC) was immobilized on anti-GST antibody-coated microtiter plates (Thermo Scientific), blocked for 30 min with 5% BSA and then overlaid with […] CaMKII (subunit concentration) in PIPES-buffered saline (pH 7.2) containing 2 mM Ca^2+, 1 μM CaM, 1 mM Mg^2+, 0.1% BSA and 0.1% Tween-20 for 20 min at room temperature. […] After extensive washes in buffer containing 1 mM EGTA, GST–2BC and bound CaMKII were eluted for 10 min in SDS loading buffer at 95 °C. Bound CaMKII was measured via immunoblot.

[2] = test system: paCaMKII binding to GST-2BC; assay: Blue light-induced paCaMKII pulldown to immobilized GST-2BC; settings: Dark, 100 µM ADP
Source text: Extended Data Fig. 1 paCaMKII photoactivation-induced sLTP requires GluN2B binding. Data are presented as mean values +/− SEM. a, Representative images of GFP-paCaMKII WT and mCherry-2BC expressed in cultured hippocampal neurons before and after blue light stimulation. Time course of correlation indices of GFP-paCaMKII and mCh-2BC after photoactivation. Images were acquired in a single plane ever 10 s (n = 4 cells). Scale bar indicates 10 µm. b, Schematic of blue light-induced paCaMKII pulldown to immobilized GST-2BC. c, Binding of […] to immobilized GST-2BC was induced by blue light in the presence of either 100 ADP µM alone or without nucleotide. (n = 4 independent samples; *p < 0.05; one-way Kruskal Wallis with Dunn’s comparison test). Dark:Light+ADP p = 0.0132; Dark:Light-ADP p = 0.1860; Light+ADP:Light-ADP p = 0.9779. d, Schematic of how K42M and I205K CaMKII mutations affect enzymatic activity and the induction of GluN2B binding. e, Representative images of dissociated mouse WT and GluN2B^ΔCaMKII hippocampal cultures expressing GFP-paCaMKII WT and mCherry cell fill before and after photoactivation. Scale bar indicates 5 µm. n = 9, 9 cells; See Fig. 1f, g (right) for quantification. Source data

[3] = target: PKG1α(h) (Homo sapiens, UniProt Q13976); assay: Kinase selectivity panel (residual activity at 1 μM); format: biochemical; settings: inhibitor at 1 μM; read-out: residual kinase activity in % of maximal activity
[4] = target: Pim-3(h) (Homo sapiens, UniProt Q86V86); assay: as above; format: biochemical; settings: inhibitor at 1 μM; read-out: residual kinase activity in % of maximal activity
[5] = target: ROCK-II(h) (Homo sapiens, UniProt O75116); assay: as above; format: biochemical; settings: inhibitor at 1 μM; read-out: residual kinase activity in % of maximal activity
Chain of ROCK-II(h) (O75116 whole entry): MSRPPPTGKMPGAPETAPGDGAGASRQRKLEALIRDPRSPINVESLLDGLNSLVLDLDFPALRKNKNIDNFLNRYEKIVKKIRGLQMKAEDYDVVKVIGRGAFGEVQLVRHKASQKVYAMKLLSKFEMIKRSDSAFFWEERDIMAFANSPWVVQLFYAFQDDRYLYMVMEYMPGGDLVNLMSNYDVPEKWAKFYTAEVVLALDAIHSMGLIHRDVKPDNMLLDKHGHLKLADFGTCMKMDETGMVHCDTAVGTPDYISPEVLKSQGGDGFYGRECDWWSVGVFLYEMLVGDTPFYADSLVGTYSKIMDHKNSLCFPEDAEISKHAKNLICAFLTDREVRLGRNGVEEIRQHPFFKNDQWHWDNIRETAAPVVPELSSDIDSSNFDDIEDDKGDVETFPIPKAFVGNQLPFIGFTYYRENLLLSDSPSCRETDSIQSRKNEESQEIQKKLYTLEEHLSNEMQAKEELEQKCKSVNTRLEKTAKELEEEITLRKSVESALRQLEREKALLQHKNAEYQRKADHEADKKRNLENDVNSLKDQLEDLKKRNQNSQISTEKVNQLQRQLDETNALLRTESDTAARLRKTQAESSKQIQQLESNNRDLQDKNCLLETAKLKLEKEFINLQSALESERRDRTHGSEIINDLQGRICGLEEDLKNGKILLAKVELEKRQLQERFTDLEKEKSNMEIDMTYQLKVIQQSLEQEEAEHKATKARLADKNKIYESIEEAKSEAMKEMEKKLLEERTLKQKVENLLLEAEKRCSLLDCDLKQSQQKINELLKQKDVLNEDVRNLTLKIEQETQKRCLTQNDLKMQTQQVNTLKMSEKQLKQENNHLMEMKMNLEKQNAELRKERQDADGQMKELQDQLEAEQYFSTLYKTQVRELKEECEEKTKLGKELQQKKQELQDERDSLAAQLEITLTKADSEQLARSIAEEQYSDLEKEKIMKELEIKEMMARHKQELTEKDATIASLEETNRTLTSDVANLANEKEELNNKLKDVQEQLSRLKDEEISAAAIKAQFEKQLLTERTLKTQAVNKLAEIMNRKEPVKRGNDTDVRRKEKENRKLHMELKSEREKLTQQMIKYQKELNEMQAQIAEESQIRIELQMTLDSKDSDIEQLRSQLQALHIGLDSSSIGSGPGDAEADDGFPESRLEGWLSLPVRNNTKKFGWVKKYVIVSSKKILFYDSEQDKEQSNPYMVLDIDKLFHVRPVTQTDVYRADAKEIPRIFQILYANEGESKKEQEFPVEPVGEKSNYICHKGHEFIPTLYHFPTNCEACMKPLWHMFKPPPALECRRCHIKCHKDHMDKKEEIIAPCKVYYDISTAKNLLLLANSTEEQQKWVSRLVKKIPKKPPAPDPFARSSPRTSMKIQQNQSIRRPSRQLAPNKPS

[6] = target: PKCδ(h) (Homo sapiens, UniProt Q05655); assay: as above; format: biochemical; settings: inhibitor at 1 μM; read-out: residual kinase activity in % of maximal activity
[7] = target: Arg(h) (Homo sapiens, UniProt P42684); assay: as above; format: biochemical; settings: inhibitor at 1 μM; read-out: residual kinase activity in % of maximal activity
[8] = target: CaMKIIγ(h) (Homo sapiens, UniProt Q13555); assay: as above; format: biochemical; settings: inhibitor at 1 μM; read-out: residual kinase activity in % of maximal activity
[9] = target: PKCα(h) (Homo sapiens, UniProt P17252); assay: as above; format: biochemical; settings: inhibitor at 1 μM; read-out: residual kinase activity in % of maximal activity
[10] = target: Aurora-C(h) (Homo sapiens, UniProt Q9UQB9); assay: as above; format: biochemical; settings: inhibitor at 1 μM; read-out: residual kinase activity in % of maximal activity
[11] = target: JAK3(h) (Homo sapiens, UniProt P52333); assay: as above; format: biochemical; settings: inhibitor at 1 μM; read-out: residual kinase activity in % of maximal activity
[12] = target: CaMKIIβ(h) (Homo sapiens, UniProt Q13554); assay: as above; format: biochemical; settings: inhibitor at 1 μM; read-out: residual kinase activity in % of maximal activity
Chain of CaMKIIβ(h) (Q13554 whole entry): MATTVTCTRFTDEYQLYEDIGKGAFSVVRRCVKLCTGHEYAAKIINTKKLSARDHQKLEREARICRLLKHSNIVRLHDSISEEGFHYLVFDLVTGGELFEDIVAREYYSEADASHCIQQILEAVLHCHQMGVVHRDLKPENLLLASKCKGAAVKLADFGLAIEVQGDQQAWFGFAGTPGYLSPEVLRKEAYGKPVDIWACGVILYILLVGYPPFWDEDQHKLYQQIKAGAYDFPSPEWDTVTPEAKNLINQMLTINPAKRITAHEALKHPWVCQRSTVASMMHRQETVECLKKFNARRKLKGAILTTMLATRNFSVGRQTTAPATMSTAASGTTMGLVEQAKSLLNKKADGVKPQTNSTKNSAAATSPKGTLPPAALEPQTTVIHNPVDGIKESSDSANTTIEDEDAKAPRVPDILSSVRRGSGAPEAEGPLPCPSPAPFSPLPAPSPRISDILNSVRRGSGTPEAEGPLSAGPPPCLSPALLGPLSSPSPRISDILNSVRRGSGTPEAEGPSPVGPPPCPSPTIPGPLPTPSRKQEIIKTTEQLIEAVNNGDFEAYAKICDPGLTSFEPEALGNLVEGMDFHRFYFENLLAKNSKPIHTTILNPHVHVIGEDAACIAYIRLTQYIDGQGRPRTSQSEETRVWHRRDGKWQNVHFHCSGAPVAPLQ

[13] = target: PKG1β(h) (Homo sapiens, UniProt Q13976); assay: as above; format: biochemical; settings: inhibitor at 1 μM; read-out: residual kinase activity in % of maximal activity
[14] = target: PDGFRβ(h) (Homo sapiens, UniProt P09619); assay: as above; format: biochemical; settings: inhibitor at 1 μM; read-out: residual kinase activity in % of maximal activity
[15] = target: CaMKI(h) (Homo sapiens, UniProt Q14012); assay: as above; format: biochemical; settings: inhibitor at 1 μM; read-out: residual kinase activity in % of maximal activity
[16] = test system: GFP–CaMKII in rat hippocampal neurons; assay: cLTP-induced CaMKII synaptic enrichment in dissociated hippocampal cultures (GFP–CaMKII WT); format: cell-based; settings: AS105
[17] = target: CDK2/cyclinE(h) (Homo sapiens, UniProt P24941); assay: Kinase selectivity panel (residual activity at 1 μM); format: biochemical; settings: inhibitor at 1 μM
[18] = target: MAPK1(h) (Homo sapiens, UniProt P27361); assay: as above; format: biochemical; settings: inhibitor at 1 μM; read-out: residual kinase activity in % of maximal activity
[19] = target: PDK1(h) (Homo sapiens, UniProt O15530); assay: as above; format: biochemical; settings: inhibitor at 1 μM; read-out: residual kinase activity in % of maximal activity
[20] = target: PAK2(h) (Homo sapiens, UniProt Q13177); assay: as above; format: biochemical; settings: inhibitor at 1 μM; read-out: residual kinase activity in % of maximal activity
[21] = target: GSK3β(h) (Homo sapiens, UniProt P49841); assay: as above; format: biochemical; settings: inhibitor at 1 μM; read-out: residual kinase activity in % of maximal activity
[22] = target: Pim-1(h) (Homo sapiens, UniProt P11309); assay: as above; format: biochemical; settings: inhibitor at 1 μM; read-out: residual kinase activity in % of maximal activity
Chain of Pim-1(h) (P11309 whole entry): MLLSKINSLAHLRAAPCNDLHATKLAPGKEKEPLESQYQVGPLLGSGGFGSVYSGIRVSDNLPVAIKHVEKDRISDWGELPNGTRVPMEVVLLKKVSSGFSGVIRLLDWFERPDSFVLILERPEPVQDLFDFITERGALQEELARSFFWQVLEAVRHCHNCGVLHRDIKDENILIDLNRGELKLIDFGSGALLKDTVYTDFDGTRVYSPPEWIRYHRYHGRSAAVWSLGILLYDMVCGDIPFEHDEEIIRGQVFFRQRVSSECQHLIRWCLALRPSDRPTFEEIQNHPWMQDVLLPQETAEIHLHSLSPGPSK

[23] = target: CDK5/p35(h) (Homo sapiens, UniProt Q00535); assay: as above; format: biochemical; settings: inhibitor at 1 μM; read-out: residual kinase activity in % of maximal activity
[24] = target: p70S6K(h) (Homo sapiens, UniProt P23443); assay: as above; format: biochemical; settings: inhibitor at 1 μM; read-out: residual kinase activity in % of maximal activity
[25] = target: SGK(h) (Homo sapiens, UniProt O00141); assay: as above; format: biochemical; settings: inhibitor at 1 μM; read-out: residual kinase activity in % of maximal activity
[26] = target: JAK2(h) (Homo sapiens, UniProt O60674); assay: as above; format: biochemical; settings: inhibitor at 1 μM
[27] = target: PI3 Kinase (p110a/p85a)(h) (Homo sapiens, UniProt P42336); assay: as above; format: biochemical; settings: inhibitor at 1 μM; read-out: residual kinase activity in % of maximal activity
[28] = target: SAPK2a(h) (Homo sapiens, UniProt Q16539); assay: as above; format: biochemical; settings: inhibitor at 1 μM
[29] = target: mTOR(h) (Homo sapiens, UniProt P42345); assay: as above; format: biochemical; settings: inhibitor at 1 μM; read-out: residual kinase activity in % of maximal activity
[30] = target: AMPKα1(h) (Homo sapiens, UniProt Q13131); assay: as above; format: biochemical; settings: inhibitor at 1 μM; read-out: residual kinase activity in % of maximal activity
[31] = target: PKBγ(h) (Homo sapiens, UniProt Q9Y243); assay: as above; format: biochemical; settings: inhibitor at 1 μM; read-out: residual kinase activity in % of maximal activity
[32] = target: FAK(h) (Homo sapiens, UniProt Q05397); assay: as above; format: biochemical; settings: inhibitor at 1 μM; read-out: residual kinase activity in % of maximal activity
Chain of FAK(h) (Q05397 whole entry): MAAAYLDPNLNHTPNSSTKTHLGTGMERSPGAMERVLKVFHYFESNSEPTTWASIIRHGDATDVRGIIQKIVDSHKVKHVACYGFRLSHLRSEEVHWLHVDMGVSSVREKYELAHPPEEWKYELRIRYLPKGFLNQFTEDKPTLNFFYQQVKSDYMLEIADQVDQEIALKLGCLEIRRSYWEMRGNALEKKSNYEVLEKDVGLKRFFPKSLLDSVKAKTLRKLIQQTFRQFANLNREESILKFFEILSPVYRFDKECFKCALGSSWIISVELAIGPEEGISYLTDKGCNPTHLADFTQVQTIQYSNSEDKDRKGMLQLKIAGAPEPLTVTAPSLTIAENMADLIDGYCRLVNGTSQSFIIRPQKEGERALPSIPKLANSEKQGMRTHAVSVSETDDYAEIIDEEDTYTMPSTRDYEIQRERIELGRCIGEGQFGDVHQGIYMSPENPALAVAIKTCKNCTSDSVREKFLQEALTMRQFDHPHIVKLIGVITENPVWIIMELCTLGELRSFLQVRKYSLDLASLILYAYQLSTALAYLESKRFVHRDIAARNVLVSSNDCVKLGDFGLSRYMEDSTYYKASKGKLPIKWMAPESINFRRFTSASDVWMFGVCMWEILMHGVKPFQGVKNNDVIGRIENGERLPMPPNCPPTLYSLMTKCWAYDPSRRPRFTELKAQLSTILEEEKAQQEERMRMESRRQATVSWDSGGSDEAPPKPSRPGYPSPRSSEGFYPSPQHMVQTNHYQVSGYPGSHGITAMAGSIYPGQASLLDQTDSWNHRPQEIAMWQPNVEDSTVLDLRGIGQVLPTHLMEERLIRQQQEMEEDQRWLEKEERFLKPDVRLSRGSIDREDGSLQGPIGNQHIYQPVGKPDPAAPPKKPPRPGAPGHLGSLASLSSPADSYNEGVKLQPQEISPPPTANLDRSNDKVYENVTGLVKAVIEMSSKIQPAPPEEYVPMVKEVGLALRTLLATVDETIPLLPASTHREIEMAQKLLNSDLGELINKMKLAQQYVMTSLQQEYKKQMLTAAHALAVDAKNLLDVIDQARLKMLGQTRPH

[33] = target: cKit(h) (Homo sapiens, UniProt P10721); assay: as above; format: biochemical; settings: inhibitor at 1 μM; read-out: residual kinase activity in % of maximal activity
Chain of cKit(h) (P10721 26-976): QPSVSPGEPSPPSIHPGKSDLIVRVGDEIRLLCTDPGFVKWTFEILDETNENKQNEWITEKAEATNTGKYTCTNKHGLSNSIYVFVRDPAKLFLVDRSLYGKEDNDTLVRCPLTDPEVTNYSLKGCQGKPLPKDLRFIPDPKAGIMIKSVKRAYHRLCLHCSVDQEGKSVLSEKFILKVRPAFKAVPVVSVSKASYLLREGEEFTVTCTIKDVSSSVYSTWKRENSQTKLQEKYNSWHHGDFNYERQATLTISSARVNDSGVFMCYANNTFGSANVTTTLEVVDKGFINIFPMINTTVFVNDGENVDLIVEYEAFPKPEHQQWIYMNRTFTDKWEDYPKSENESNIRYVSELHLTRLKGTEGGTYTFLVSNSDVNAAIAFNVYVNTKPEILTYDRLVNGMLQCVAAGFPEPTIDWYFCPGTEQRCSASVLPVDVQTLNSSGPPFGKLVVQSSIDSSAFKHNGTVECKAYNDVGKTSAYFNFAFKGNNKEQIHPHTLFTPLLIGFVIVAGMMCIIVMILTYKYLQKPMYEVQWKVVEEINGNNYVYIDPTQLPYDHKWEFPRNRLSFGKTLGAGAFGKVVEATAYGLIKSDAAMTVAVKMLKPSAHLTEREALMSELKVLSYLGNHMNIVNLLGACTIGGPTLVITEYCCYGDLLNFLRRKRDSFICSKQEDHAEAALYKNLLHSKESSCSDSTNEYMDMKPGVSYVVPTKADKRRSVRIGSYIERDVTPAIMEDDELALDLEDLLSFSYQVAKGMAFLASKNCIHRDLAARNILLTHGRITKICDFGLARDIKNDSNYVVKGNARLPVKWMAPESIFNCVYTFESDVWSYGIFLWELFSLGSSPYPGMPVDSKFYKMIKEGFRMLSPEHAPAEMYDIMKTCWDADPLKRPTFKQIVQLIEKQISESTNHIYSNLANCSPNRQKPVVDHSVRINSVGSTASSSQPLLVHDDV

[34] = target: MEK1(h) (Homo sapiens, UniProt Q02750); assay: as above; format: biochemical; settings: inhibitor at 1 μM; read-out: residual kinase activity in % of maximal activity
[35] = target: MAPK2(h) (Homo sapiens, UniProt P28482); assay: as above; format: biochemical; settings: inhibitor at 1 μM; read-out: residual kinase activity in % of maximal activity
[36] = target: CaMKIV(h) (Homo sapiens, UniProt Q16566); assay: as above; format: biochemical; settings: inhibitor at 1 μM; read-out: residual kinase activity in % of maximal activity
[37] = target: Ret(h) (Homo sapiens, UniProt P07949); assay: as above; format: biochemical; settings: inhibitor at 1 μM; read-out: residual kinase activity in % of maximal activity
[38] = target: Flt3(h) (Homo sapiens, UniProt P36888); assay: as above; format: biochemical; settings: inhibitor at 1 μM; read-out: residual kinase activity in % of maximal activity
[39] = target: CaMKIIδ(h) (Homo sapiens, UniProt Q13557); assay: as above; format: biochemical; settings: inhibitor at 1 μM; read-out: residual kinase activity in % of maximal activity
[40] = target: JNK2α2(h) (Homo sapiens, UniProt P45984); assay: as above; format: biochemical; settings: inhibitor at 1 μM
Chain of JNK2α2(h) (P45984 whole entry): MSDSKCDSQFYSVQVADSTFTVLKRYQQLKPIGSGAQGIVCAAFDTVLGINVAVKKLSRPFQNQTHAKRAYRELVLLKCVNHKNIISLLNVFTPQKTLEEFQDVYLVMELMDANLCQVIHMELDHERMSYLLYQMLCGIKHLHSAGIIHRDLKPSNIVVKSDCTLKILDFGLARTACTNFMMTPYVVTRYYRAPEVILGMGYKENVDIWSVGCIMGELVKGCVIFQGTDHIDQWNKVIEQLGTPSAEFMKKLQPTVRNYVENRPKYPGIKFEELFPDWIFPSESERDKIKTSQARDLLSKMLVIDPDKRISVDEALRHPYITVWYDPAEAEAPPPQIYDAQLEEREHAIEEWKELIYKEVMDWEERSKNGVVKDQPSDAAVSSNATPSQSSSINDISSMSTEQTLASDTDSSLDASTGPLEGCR

[41] = target: KDR(h) (Homo sapiens, UniProt P35968); assay: as above; format: biochemical; settings: inhibitor at 1 μM; read-out: residual kinase activity in % of maximal activity
[42] = target: FGFR1(h) (Homo sapiens, UniProt P11362); assay: as above; format: biochemical; settings: inhibitor at 1 μM; read-out: residual kinase activity in % of maximal activity
[43] = target: IGF-1R(h) (Homo sapiens, UniProt P08069); assay: as above; format: biochemical; settings: inhibitor at 1 μM; read-out: residual kinase activity in % of maximal activity
[44] = target: GSK3α(h) (Homo sapiens, UniProt P49840); assay: as above; format: biochemical; settings: inhibitor at 1 μM; read-out: residual kinase activity in % of maximal activity

Nc1ncnc2c1ncn2[C@@H]1O[C@H](COP(=O)(O)OP(=O)(O)O)[C@@H](O)[C@H]1O [ADP]
bound CaMKIIα (immunoblot, relative) ([1]; 4 mM ADP): 2.712 and 2.4126 and 1.817 | binding to immobilized GST-2BC (immunoblot) [2]: 54.536 and 63.536 and 53.536

NCCNc1cccc(-c2ccnc(Nc3cccc(Cl)c3)n2)c1 [AS105]
remaining activity at 1 µM [3]: 61% | remaining activity at 1 µM [4]: 109% | remaining activity at 1 µM [5]: 43% | remaining activity at 1 µM [6]: 73% | remaining activity at 1 µM [7]: 87% | remaining activity at 1 µM [8]: 2% | remaining activity at 1 µM [9]: 51% | remaining activity at 1 µM [10]: 57% | remaining activity at 1 µM [11]: 89% | effect on GluN2B binding ([1]; AS105): without inhibiting | bound CaMKIIα (immunoblot, relative) ([1]; 10 μM AS105, no nucleotide): 2.79 and 2.715 and 1.563 | remaining activity at 1 µM [12]: 6% | remaining activity at 1 µM [13]: 68% | remaining activity at 1 µM [14]: 80% | remaining activity at 1 µM [15]: 83% | effect on stimulation-induced movement to excitatory synapses [16]: without inhibiting | residual kinase activity in % of maximal activity [17]: 2% | remaining activity at 1 µM [18]: 105% | remaining activity at 1 µM [19]: 109% | remaining activity at 1 µM [20]: 104% | remaining activity at 1 µM [21]: 11% | remaining activity at 1 µM [22]: 69% | remaining activity at 1 µM [23]: 1% | remaining activity at 1 µM [24]: 77% | remaining activity at 1 µM [25]: 97% | residual kinase activity in % of maximal activity [26]: 134% | remaining activity at 1 µM [27]: 96% | residual kinase activity in % of maximal activity [28]: 99% | remaining activity at 1 µM [29]: 102% | remaining activity at 1 µM [30]: 38% | remaining activity at 1 µM [31]: 76% | remaining activity at 1 µM [32]: 75% | remaining activity at 1 µM [33]: 91% | remaining activity at 1 µM [34]: 111% | remaining activity at 1 µM [35]: 106% | remaining activity at 1 µM [36]: 101% | remaining activity at 1 µM [37]: 55% | remaining activity at 1 µM [38]: 2% | remaining activity at 1 µM [39]: 2% | residual kinase activity in % of maximal activity [40]: 79% | remaining activity at 1 µM [41]: 28% | remaining activity at 1 µM [42]: 91% | remaining activity at 1 µM [43]: 121% | remaining activity at 1 µM [44]: 6%
